Experimental data reported in PubChem BioAssay AID1508591.

Settings: rat; liver microsomes; pH 7.4; 15.0 min; 1.0 µM
`COc1ccc(NC(=O)c2cc(-c3ccc[nH]3)n[nH]2)cc1OC` gave a half-life of over 30 min.
`CCN(CC)c1ccc(Nc2nc(Cl)ncc2Br)cc1` gave a half-life of 6.24 min.
Work on `COc1ccccc1-c1nnc2sc(-c3ccc(N(C)C)cc3)nn12` yielded a half-life of 2.24 min.
Compound `Cc1ccc(S(=O)(=O)Nc2ccc(F)cc2C(=O)Nc2nc(-c3ccccc3)cs2)cc1` has a half-life of 3 min.
Work on `CCN1C(=O)c2ccccc2[S@](=O)c2ccc(C(=O)NCc3ccc(F)cc3)cc21` yielded a half-life of 12 min.
`CCN1C(=O)c2ccccc2[S@](=O)c2ccc(C(=O)NCc3ccc(C#N)cc3)cc21` showed a half-life of 21 min.
With `Cc1c(-c2cccc3c(CCCOc4cccc5ccccc45)c(C(=O)O)n(Cc4cccnc4)c23)c(COc2ccc(N3CCN([S+](=O)([O-])N(C)C)CC3)cc2)nn1C` the half-life was 12 min.
Compound `Cc1ccc(C(=O)N2CCc3sc(C(=O)NC(C)c4ccccc4)cc3C2)cc1` (stereo not given) has a half-life of 4.79 min.
In the case of `O=S(=O)(Nc1ccc(-c2cccnc2)c2cccnc12)c1cccc(C(F)(F)F)c1`, the half-life is reported as 1.25 min.
With `NS(=O)(=O)c1ccc(Cc2c(-c3cccc(-c4ccccc4)c3)nn(-c3nc(C(=O)O)cs3)c2CC2CC2)cc1` the half-life was over 30 min.
Compound `Cc1cc(NS(=O)(=O)c2ccc(NC(=O)Cc3ccc(Cl)c(Cl)c3)cc2)no1` has a half-life of 9.7 min.
`Cc1ccc(CNc2ccccc2C(=O)Nc2nc(-c3ccccc3)cs2)cc1` showed a half-life of over 30 min.
`O=C(Nc1ncc(Cc2ccccc2)s1)c1ccc(-c2cccc([N+](=O)[O-])c2)o1` showed a half-life of over 30 min.
In the case of `C=CCON=C(C[C@H]1O[C@@H]2O[C@]3(C)CC[C@@H]4[C@H](C)CC[C@@H]([C@H]1C)[C@@]24OO3)[C@H]1O[C@@H]2O[C@]3(C)CC[C@H]4[C@H](C)CC[C@@H]([C@@H]1C)[C@@]24OO3`, the half-life is reported as 2.8 min.
With `Cc1nn2c(c1-c1ccccc1-c1ccccc1)N(CCC(C)C)CCC2` the half-life was 1.31 min.
Work on `CCc1ccc2ncc(C(=O)c3ccc(C)c(C)c3)c(N3CCC(C(N)=O)CC3)c2c1` yielded a half-life of 1.47 min.
`CC(C)Oc1cccc(C2CC(=O)Nc3cc4c(cc32)OCO4)c1` (stereo not given) gave a half-life of 3.46 min.
In the case of `CC(C)COc1ccc(-c2csc(N3CCC(C(N)=O)CC3)n2)cc1`, the half-life is reported as 7.23 min.
In the case of `Oc1ccc2[nH]cc(CCCCN3CC=C(c4ccccc4)CC3)c2c1`, the half-life is reported as over 30 min.
In the case of `COc1ccc2c(ccn2CCC(=O)Nc2ccc3c(c2)C(=O)N2CCC[C@H]2C(=O)N3)c1`, the half-life is reported as 9.22 min.
In the case of `Oc1ccccc1CN1CCNc2cc(Nc3ccccc3)ncc2C1`, the half-life is reported as 1.79 min.
With `Cc1ccc(S(=O)(=O)Nc2cc(F)ccc2C(=O)Nc2nc(-c3ccccc3)cs2)cc1` the half-life was 5.6 min.
For `Clc1cccc(Nc2nc(-c3ccncc3)nc3ccccc23)c1`, the half-life was 7.7 min.
`COc1c(Cl)cc2c([nH]c3cnccc32)c1NC(=O)c1cccnc1C` gave a half-life of over 30 min.
`COc1cc(/C=C2\C(=O)Nc3ccccc32)ccc1O` gave a half-life of 12 min.
`CCOc1ccc(-c2cn3c(n2)sc2cc(C(=O)NCCCN(CC)CC)ccc23)cc1` gave a half-life of over 30 min.
`Cc1ccc(S(=O)(=O)Nc2ccccc2CNc2nc(-c3ccccc3)cs2)cc1` showed a half-life of 1.6 min.
`O=C(c1ccccc1)N1CCN(c2nc(-c3ccc(Br)cc3)cs2)CC1` gave a half-life of over 30 min.
For `Cc1cccc(N2CCN(C(=O)c3ccc4c(c3)C(O)CCCCCN4C)CC2)c1` (stereo not given), the half-life was 1.28 min.
Compound `Cc1cccc(S(=O)(=O)c2cn(Cc3ccccc3)c3cc(N4CCCCC4C)c(F)cc3c2=O)c1` (stereo not given) has a half-life of 2 min.
Work on `CCCc1cc(C)[nH]c(=O)c1CNC(=O)c1cc(-c2ccnc(N3CCN(C)CC3)c2)cc2c1cnn2C(C)C` yielded a half-life of 27.2 min.
In the case of `CCCNC(=O)Nc1ccc(Oc2ncnc3cc(OC)c(OC)cc23)cc1Cl`, the half-life is reported as over 30 min.
Compound `Cc1nc(N2CCN(c3ccccn3)CC2)c2c(C)c(C(=O)Nc3ccc(F)cc3Cl)sc2n1` has a half-life of 10.2 min.
`O=C(NCC1Cn2cccc2CN1Cc1cccnc1)Nc1ccccc1` (stereo not given) gave a half-life of 1.41 min.
Work on `O=C(NC1CCCc2c1[nH]c1ccc(Cl)cc21)c1ccncc1` (stereo not given) yielded a half-life of over 30 min.
With `COc1ccc(-c2cnc(N3CCC(C(N)=O)CC3)s2)cc1OC` the half-life was over 30 min.
Compound `CSc1ccccc1N1CCN(CCCCCC(=O)NC2CCCc3ccccc32)CC1` (stereo not given) has a half-life of 2.21 min.
In the case of `CCOc1ccc(CCNC(=O)c2cc3ccccc3n2C)cc1OCC`, the half-life is reported as 1.38 min.
`Cc1ccc2c(c1)[nH]c1c(N3CCN(Cc4ccccc4)CC3)ncnc12` showed a half-life of 7.49 min.
In the case of `CCN(c1ccccc1)S(=O)(=O)c1cc(C(=O)Nc2ccc(Br)cc2)ccc1F`, the half-life is reported as 1.5 min.
Compound `COc1ccc(-c2nc(-c3c(C)noc3C)cc3c2cc(C)n3CCN(C)C)cc1OC` has a half-life of over 30 min.
With `CCC(CC)c1cc([C@H]2CN3CC[C@H]2C[C@@H]3CNC(=O)COc2ccccc2)nc(-c2ccncc2)n1` the half-life was 2.38 min.
Compound `Fc1ccccc1-c1ccc(Nc2nc(-c3ccncc3)nc3ccccc23)cc1F` has a half-life of over 30 min.
`Cc1sc(NC(=O)Cc2ccc3c(c2)OCO3)nc1-c1ccc2c(c1)CCN2C` showed a half-life of 5.5 min.
Work on `CC[C@H]1CN2CCC3CC(OC)C(OC)CC3[C@@H]2C[C@@H]1C[C@H]1NCCC2=C1CC(OC)=C(O)C2` (stereo not given in full) yielded a half-life of over 30 min.
`Cc1ccc(S(=O)(=O)Nc2cc(F)c(F)cc2C(=O)Nc2nc(-c3ccccc3)cs2)cc1` showed a half-life of 4.6 min.
Work on `CCOc1ccccc1C(=O)Nc1ccccc1C(=O)Nc1cccc(S(=O)(=O)C(F)(F)F)c1` yielded a half-life of over 30 min.
With `O=C(c1ccc2c(c1)OCO2)N1CCC(Cc2nc(-c3cnccn3)no2)CC1` the half-life was over 30 min.
`CC(C)(N)CNC(=O)CC1CCC2(CC1)OOC1(O2)C2CC3CC(C2)CC1C3` (stereo not given) gave a half-life of over 30 min.
For `Cn1c(=O)c2cc(C(=O)NCCCN3CCN(c4ccccc4F)CC3)sc2c2ccccc21`, the half-life was 1.97 min.
In the case of `O=C(NCCc1ccc(OCC(F)(F)F)c(OCC(F)(F)F)c1)c1cc2sccc2n1Cc1ccccc1`, the half-life is reported as 1.9 min.
In the case of `O=c1[nH]nc(Sc2ncc([N+](=O)[O-])s2)n1-c1ccc2c(c1)OCCO2`, the half-life is reported as 1.02 min.
Compound `Clc1ccccc1CSc1nc2ncc(Br)cc2[nH]1` has a half-life of 6.5 min.
In the case of `Cc1nc2sccn2c(=O)c1S(=O)(=O)Nc1ccc(N2CCN(C)CC2)cc1`, the half-life is reported as 17.8 min.
`Cc1ccc(NC(=O)c2cc(-c3ccc(C)o3)nc3ccccc23)nc1` showed a half-life of 8.3 min.
`COc1ccc(-n2c(C)cc(-c3nnc4n3CCCCC4)c2C)cc1` showed a half-life of 2.4 min.
In the case of `Cc1ccnc(NC(=O)C2CC(=O)N(c3n[nH]c4cc(Br)ccc34)C2)c1` (stereo not given), the half-life is reported as over 30 min.
With `O=C(NCCCc1ccccc1)c1cccc(-c2cc(O)c3ncccc3c2)c1` the half-life was 1.65 min.
For `C[C@@H](c1ccc2nccn2c1)n1nnc2ncc(-c3cnn(C)c3)nc21`, the half-life was over 30 min.
`CCCCC(C)/C=C(C)/C=C(\C)C(=O)NC1=CC(O)(/C=C/C=C/C=C/C(=O)NC2=C(O)CCC2=O)C2OC2C1=O` (stereo not given) gave a half-life of 1.83 min.
Work on `Fc1ccc(Cl)cc1-c1nc(Nc2ccncc2)c2nccnc2n1` yielded a half-life of 15.9 min.
Work on `C[N+]1([O-])[C@@H]2CC[C@H]1CC(OC(=O)C(CO)c1ccccc1)C2` (stereo not given in full) yielded a half-life of over 30 min.
Compound `O=C(Nc1nnc(C2CCCCC2)s1)c1ccc(Br)s1` has a half-life of over 30 min.
In the case of `Cc1ccc(S(=O)(=O)Nc2cnccc2C(=O)Nc2nc(-c3ccc(C)c(C)c3)cs2)cc1`, the half-life is reported as 2.1 min.
With `O=C1C(SCCO)=C(SCCO)C(=O)c2ccccc21` the half-life was over 30 min.
Work on `Cc1nn2c(c1-c1ccccc1-c1ccccc1)N(Cc1ccccc1)CCC2` yielded a half-life of 1.23 min.
Work on `O=C(Nc1ccc(F)c(C(F)(F)F)c1)Nc1nnc(-c2ccncc2)s1` yielded a half-life of over 30 min.
With `COc1ccc(NC(=O)c2c(C)cccc2C)cc1[S+](=O)([O-])N1CCCCC1` the half-life was 4.2 min.
For `COc1ccc(Cl)cc1NC(=O)c1sc2nc3c(cc2c1N)N1CCC3CC1`, the half-life was 26.4 min.
In the case of `CC(=O)Nc1cc(-c2nc(Nc3ccc(F)c(F)c3)c3ccccc3n2)ccn1`, the half-life is reported as 12 min.
`O=C(NCCCN1CCCC1=O)c1ccc(-c2ncc3cnc(-c4ccccc4)cn23)cc1` showed a half-life of over 30 min.
`O=C(Nc1nc(-c2ccccn2)cs1)c1cccc(S(=O)(=O)N2CCOCC2)c1` gave a half-life of 8.47 min.
With `O=C(Nc1cccc(Cc2ccccc2)c1)c1ccc(-c2cccc([N+](=O)[O-])c2)o1` the half-life was 2.5 min.
`CCC(CC)C(=O)NC[C@@H]1C=C(C)[C@H](Cc2nc3c(C)cccc3[nH]2)C[C@H]1C(C)C` gave a half-life of 1.12 min.
`NC1CCC(Nc2nc(Nc3ccc(C(=O)N4CCCCC4)cc3)c3ncn(-c4cccc(F)c4)c3n2)CC1` (stereo not given) showed a half-life of 23 min.
Compound `Cc1cc(C)cc(NS(=O)(=O)c2ccc3[nH]cc(C(=O)NCc4ccco4)c(=O)c3c2)c1` has a half-life of 1.84 min.
Compound `FC(F)(F)c1ccccc1-c1nc(NCc2cccs2)c2ccccc2n1` has a half-life of 2.5 min.
`COc1cccc(C(=O)Nc2ccc([S+](=O)([O-])Nc3nccs3)cc2)c1O` gave a half-life of over 30 min.
Compound `O=C(CCc1ccccc1)NC(c1cccs1)c1cc(Cl)c2cccnc2c1O` (stereo not given) has a half-life of 2.14 min.
In the case of `CCCN1CNc2c(c(=O)[nH]c(=S)n2CCc2ccc(OC)c(OC)c2)C1`, the half-life is reported as 18 min.
`COc1ccc(NC(=O)c2[nH]c(C)c(C(C)=O)c2C)cc1` showed a half-life of over 30 min.
In the case of `O=C(Nc1nc(-c2ccccc2)cs1)c1ccncc1NS(=O)(=O)c1ccccc1F`, the half-life is reported as 7 min.
Compound `CNc1nc2c(s1)C(c1ccc(Cl)cc1)CC(=O)N2` (stereo not given) has a half-life of 2.07 min.
`O=[S+]([O-])(Nc1ccccc1)c1ccc(NCc2cccc(C(F)(F)F)c2F)cc1` gave a half-life of 9 min.
For `CCOc1ccc(-c2csc(N3CCC(C(N)=O)CC3)n2)cc1`, the half-life was 9.24 min.
Work on `CC1(C)CC2CC(C)(CN2S(=O)(=O)c2ccc(C(=O)Nc3cccc(S(=O)(=O)N4CCOCC4)c3)cc2)C1` (stereo not given) yielded a half-life of 2.8 min.
For `COc1cc(/C=C(\C#N)c2nc3ccccc3[nH]2)ccc1OCc1ccc(F)cc1`, the half-life was 7.99 min.
Work on `Cc1ccccc1C(=O)Nc1nc2c(s1)CC(C(C)(C)C)CC2` (stereo not given) yielded a half-life of 10.5 min.
`Clc1ccc(-c2noc3ncnc(N4CCCCC4)c23)cc1` showed a half-life of 5.8 min.
For `COc1ccc(-c2ccc3nc(-c4ccccc4C)oc3c2)c(OC)c1OC`, the half-life was over 30 min.
Work on `O=C(O)c1cn(C2CC2)c2cc(N3C[C@@H]4C[C@H]3CN4)c(F)cc2c1=O` yielded a half-life of over 30 min.
With `NC(=O)C1CCN(c2nc(-c3ccccc3N)cs2)CC1` the half-life was 25.3 min.
In the case of `CCOc1ccc(CCNC(=O)c2cc3sccc3n2Cc2ccc(-n3cncn3)cc2)cc1OCC`, the half-life is reported as 4.3 min.
With `C[C@H]1CN(C(=O)Nc2ccc(F)cc2)C[C@@H]1c1nc(-c2ccccc2)no1` the half-life was over 30 min.
`CC(=O)N1CCc2cc(S(=O)(=O)NCCC3=CCCCC3)ccc21` gave a half-life of 1.3 min.
Work on `OCc1ccc(-c2nn(Cc3ccccc3)c3ccccc23)o1` yielded a half-life of 5.17 min.
With `FC(F)(F)c1ccccc1-c1nc(NCc2cccc(Cl)c2)c2ccccc2n1` the half-life was 2.97 min.
For `Cc1ccc(O)c(-c2cc(-c3ccccc3C)[nH]n2)c1`, the half-life was 24.4 min.
With `Cc1ccc(-c2ccc(CNc3nc(-c4ccccc4C(C)C)nc4ccccc34)cc2)cn1` the half-life was 8.23 min.
`O=C(NCCCNc1nc(Nc2cccc(NC(=O)N3CCCC3)c2)ncc1I)c1cccs1` showed a half-life of 1.87 min.
